According to article PMC6017089, “Discovery of a Manduca sexta Allatotropin Antagonist from a Manduca sexta Allatotropin Receptor Homology Model” (Molecules : A Journal of Synthetic Chemistry and Natural …, 2018):
Several values for one entry are separate records, joined by “and”; a condition that tells them apart may be missing. Identical values can stand only once. Entries after “also recorded” stand apart in the source; their conditions may differ. Like-named read-outs stand apart in the source and are kept apart here. Non-standard residues stand in square brackets, D forms with d. Residues, ends and D or L forms follow the SMILES beside them. No end group written: not given here. *: point of attachment. Phe(4-Cl) = N[C@@H](Cc1ccc(Cl)cc1)C(=O)O; Phe(4-Me) = Cc1ccc(C[C@H](N)C(=O)O)cc1; Ala(cPr) = N[C@@H](CC1CC1)C(=O)O; Isobutyryl = CC(C)C(=O)*

Legend:
[1] = target: T1, corpora allata (CA) of adult female M. sexta stimulated with Manse-AT (Manduca sexta, UniProt F1CZQ1); format: cell-based
T1 sequence (F1CZQ1 1-457): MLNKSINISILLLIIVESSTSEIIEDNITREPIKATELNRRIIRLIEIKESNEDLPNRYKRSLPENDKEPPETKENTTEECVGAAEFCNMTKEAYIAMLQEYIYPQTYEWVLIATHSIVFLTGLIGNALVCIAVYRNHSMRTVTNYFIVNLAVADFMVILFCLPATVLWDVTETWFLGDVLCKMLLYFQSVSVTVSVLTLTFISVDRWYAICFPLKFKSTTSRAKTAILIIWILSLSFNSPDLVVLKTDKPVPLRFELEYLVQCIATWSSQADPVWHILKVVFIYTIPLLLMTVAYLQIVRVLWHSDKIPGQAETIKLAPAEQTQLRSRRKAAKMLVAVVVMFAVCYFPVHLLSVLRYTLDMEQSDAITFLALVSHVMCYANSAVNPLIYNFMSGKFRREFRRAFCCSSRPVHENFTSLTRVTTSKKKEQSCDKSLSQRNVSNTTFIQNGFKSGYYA
Description: (§1) On the day of adult emergence (day 0), females were marked and maintained in the wooden chamber until used. The assays for JH biosynthesis were performed using CA from day 3 females. A pair of CA with corpora cardiaca attached were incubated for 3 h at 30 °C in 100 µL of medium 199 (GIBCO) with Hanks’ salts, L-glutamine, 25 mM HEPES buffer (pH 7.2) and 2% Ficoll in the dark with gentle shaking. Compounds were dissolved in medium 199 for assay as described previously and used on the same day that the peptides were prepared. After incubation, 200 µl n-hexane containing 20 ng of citronellol as an internal standard was mixed with the incubation medium and the mixture was centrifuged at 2500× g for 5 min. The organic phases (upper layer) were removed and transferred to the analyzed vials. For M. sexta, it is known that JH II and JH III are predominantly made in adult (they contribute 99% of total JH, together). The change of total JH II and JH III titer was used to estimate the effects of JH biosynthesis in this study. The quantitative assay for JH II and JH III titer was determined by GC-MS/MS as described previously. The retention time of JH II and JH III was 11.16 min and 10.36 min, respectively. The quantification transition for JH II was 107→105.4 (collsion energy: 45 eV). Its confirmation transitions were 81→79.6 (collsion energy: 40 eV), 121→119 (collsion energy: 40 eV), 121→104.9 (collsion energy: 15 eV) and 121→92.9 (collsion energy: 10 eV), respectively. For JH III, the quantification transition was […] (collsion energy: 10 eV), the confirmation transitions were 81→79.1 (collsion energy: 5 eV), 94.9→67.1 (collsion energy: 10 eV), 120.9→93 (collsion energy: 10 eV) and 120.9→105.1 (collsion energy: 15 eV), respectively. Compounds were dissolved in medium 199 for assay and used on the same day that the peptides were prepared. Each data point on the dose-response figure represents replicate incubations of 9–13 experimental CA compared to control CA (i.e., no peptide added). EC50 (stimulator concentration50 defined as the concentration of stimulator that provokes a response halfway between the baseline and maximum response) values of Manse-AT and analogs were calculated from the dose-response curves.
Antagonistic effects of Manse-AT antagonists were measured with the compound mixture solutions (varying concentrations of the antagonist added together with Manse-AT) compared with the stimulation effects of Manse-AT. Dose response curves of antagonist on the inhibition of JH stimulation of Manse-AT was obtained using different concentrations of antagonist mixed with 1 nM Manse-AT (Supplementary Materials, Figure S1). Each data point on the dose-response figure was calculated using the Formula (1). (RManse-AT − RMixture)/(RManse-AT − RControl) (1)
RManse-AT is the average JH biosynthesis rate of 1 nM Manse-AT, RMixture is the rate of mixture contained different concentration antagonist and 1 nM Manse-AT, RControl is the average rate of medium without any peptides.
(§2) Data presented as percentages were log-transformed before statistical analyses. Data were analysed using a one-way analysis of variance (ANOVA) with a Dunnett’s multiple comparison test as the post hoc determination of significance using Prism Graph Pad version 5.0 (GraphPad Software, San Diego, CA, USA). Dose-response curves were also prepared using the computer program GraphPad Prism. Values are expressed as mean ± standard errors (S.E.M.) with N indicating the number of samples measured.

[2] = target: T2, corpora allata (CA) of adult female M. sexta (Manduca sexta, UniProt F1CZQ1); test: Stimulation of JH biosynthesis in vitro by corpora allata; format: cell-based; settings: for Stimulation of JH Biosynthesis EC50 (95% CI) / EC50: pair of CA with corpora cardiaca from day 3 females, 3 h at 30 °C in medium 199 pH 7.2, total JH II + JH III by GC-MS/MS, 9–13 repeats per concentration, 95% CI in brackets; for Stimulation of JH Biosynthesis: Stimulation at 1 μM: peptide 1 μM, CA from day 3 females, 3 h at 30 °C, mean ± SEM, repeat number in brackets, versus control CA without peptide; for fold less potent than Manse-AT (EC50, stimulation of JH biosynthesis): ratio of EC50 values to Manse-AT
T2 sequence (F1CZQ1 1-457): T1 sequence (F1CZQ1 1-457)
Description: as §1, §2

[3] = read-out: Antagonistic Effects on JH Biosynthesis IC50 (95% CI); antagonist at varying concentrations mixed with 1 nM Manse-AT; CA from day 3 females, 3 h at 30 °C; JH II + JH III by GC-MS/MS; 9–13 repeats per concentration; 95% CI in brackets
[4] = antagonist at varying concentrations mixed with 1 nM Manse-AT; CA from day 3 females, 3 h at 30 °C; JH II + JH III by GC-MS/MS; 9–13 repeats per concentration; 95% CI in brackets
[5] = ratio of IC50 values to Manse-AT (10–13)

## C[C@H](N)C(=O)N[C@@H](CCCNC(=N)N)C(=O)NCC(=O)N[C@@H](Cc1ccccc1)C(N)=O [Manse-AT (10–13)] (H-ARGF-NH2)
[1]; [3]
  IC50: 0.9 nM
[2]
  Stimulation of JH Biosynthesis EC50 (95% CI): cannot be calculated; also recorded: No effect
  Stimulation of JH Biosynthesis: Stimulation at 1 μM: 8.1± 17.6 (13) %

## C[C@H](N)C(=O)N[C@@H](CCCNC(=N)N)C(=O)NCC(=O)N[C@@H](Cc1ccc(Cl)cc1)C(N)=O [analog 12] (H-ARG[Phe(4-Cl)]-NH2)
[1]; [3]
  IC50: 9.4 nM

## Ala-Leu-Gly-Phe-NH2 [analog 6, Manse-AT (10–13) analog, Arg replaced with Leu]
[1]; [4]
  Antagonistic Effects on JH Biosynthesis IC50 (95% CI): no antagonistic effect

## N=C(N)NCCC[C@H](NC(=O)CN)C(=O)NCC(=O)N[C@@H](Cc1ccccc1)C(N)=O [analog 1] (H-GRGF-NH2)
[1]; [3]
  IC50: 1.2 nM

## H-MTARGF-NH2 [Manse-AT (8–13)]
[2]
  EC50: 2490 nM
  Stimulation of JH Biosynthesis: Stimulation at 1 μM: 133.1 ± 22.3 (9) %

## C[C@H](N)C(=O)N[C@@H](CCCNC(=N)N)C(=O)N[C@@H](C)C(=O)N[C@@H](Cc1ccccc1)C(N)=O [analog 7] (H-ARAF-NH2)
[1]; [3]
  IC50: 17.5 nM

## CC(C)C(=O)N[C@@H](CCCNC(=N)N)C(=O)NCC(=O)N[C@@H](Cc1ccccc1)C(N)=O [analog 3] (Isobutyryl-Arg-Gly-Phe-NH2)
[1]; antagonist at varying concentrations mixed with 1 nM Manse-AT; CA from day 3 females, 3 h at 30 °C; JH II + JH III by GC-MS/MS; 9–13 repeats per concentration; 95% CI in brackets; read-out: Antagonistic Effects on JH Biosynthesis IC50 (95% CI)
  IC50: 26.1 nM
[1]; [5]
  fold less active than the lead Manse-AT (10–13) (IC50, antagonistic effect): ~30 fold

## Ala-Ala-Gly-Phe-NH2 [analog 5, Manse-AT (10–13) analog, Arg replaced with Ala]
[1]; [4]
  Antagonistic Effects on JH Biosynthesis IC50 (95% CI): no antagonistic effect

## Arg-Gly-Phe-NH2 [Manse-AT (11–13), truncated tripeptide analog of Manse-AT]
[1]; [4]
  Antagonistic Effects on JH Biosynthesis IC50 (95% CI): did not possess any antagonistic effect; also recorded: No effect
[2]
  Stimulation of JH Biosynthesis EC50 (95% CI): cannot be calculated; also recorded: No effect
  Stimulation of JH Biosynthesis: Stimulation at 1 μM: 8.3 ± 16.4 (9) %

## H-EMMTARGF-NH2 [Manse-AT (6–13)]
[2]
  EC50: 18.4 nM
  Stimulation of JH Biosynthesis: Stimulation at 1 μM: 600% and 600.5 ± 98.5 (9) %
  fold less potent than Manse-AT (EC50, stimulation of JH biosynthesis): about 20 fold

## TARGFa [Manse-AT (9–13), truncated analog of Manse-AT]
[2]
  Stimulation of JH Biosynthesis EC50 (95% CI): cannot be calculated; also recorded: No effect
  Stimulation of JH Biosynthesis: Stimulation at 1 μM: 10.6 ± 21.0 (11) %

## AMMTARGF-NH2 [Manse-AT (6–13) [Ala^1]]
[2]; concentration of 10 µM, adult female CA in vitro
  Stimulation of JH biosynthesis at 10 µM: completely inactive
[2]
  Stimulation of JH Biosynthesis EC50 (95% CI): No effect

## GFKNVEMMTARGF-NH2 [Manse-AT, Manduca sexta allatotropin]
[2]
  EC50: 0.9 nM
  Stimulation of JH Biosynthesis: Stimulation at 1 μM: 426.6 ± 86.3 (9) %

## Ala-Arg-Gly-Ala-NH2 [analog 9, Manse-AT (10–13) analog, Phe replaced with Ala]
[1]; [4]
  Antagonistic Effects on JH Biosynthesis IC50 (95% CI): inactive; also recorded: No effect

## CC(C)C[C@H](N)C(=O)N[C@@H](CCCNC(=N)N)C(=O)NCC(=O)N[C@@H](Cc1ccccc1)C(N)=O [analog 2] (H-LRGF-NH2)
[1]; [3]
  IC50: 35.4 nM

## C[C@H](N)C(=O)N[C@@H](CCCNC(=N)N)C(=O)NCC(=O)N[C@@H](Cc1ccc(O)cc1)C(N)=O [analog 10] (H-ARGY-NH2)
[1]; [3]
  IC50: 1 nM

## Cc1ccc(C[C@H](NC(=O)CNC(=O)[C@H](CCCNC(=N)N)NC(=O)[C@H](C)N)C(N)=O)cc1 [analog 11] (H-ARG[Phe(4-Me)]-NH2)
[1]; [3]
  IC50: 8.4 nM

## H-MMTARGF-NH2 [Manse-AT (7–13)]
[2]
  EC50: 180 nM and 228 nM
  Stimulation of JH Biosynthesis: Stimulation at 1 μM: 232.9% and 232.9 ± 33.7 (9) %
  fold less potent than Manse-AT (EC50, stimulation of JH biosynthesis): 200 fold

## C[C@H](N)C(=O)N[C@@H](CCCNC(=N)N)C(=O)N[C@@H](CC1CC1)C(=O)N[C@@H](Cc1ccccc1)C(N)=O [analog 8] (H-AR[Ala(cPr)]F-NH2)
[1]; [5]
  fold less active than the lead Manse-AT (10–13) (IC50, antagonistic effect): ~1145 fold
